Experimental data from US10010614B2, “Derivatives of GLP-1 like peptides, and uses thereof” (Novo Nordisk A/S, priority 2013, dated 2018).
Like-named read-outs stand apart in the source and are kept apart here. Numbered stars: 1 amine (or outer) side, 2 acyl side, 3 side chain; on linkers, the order of the positions; unused ones are H or OH. Square brackets hold non-standard residues; d marks the D form. Side chains are listed from the residue outwards. Peptide text beside a SMILES is read from it. * marks the point of attachment. C20 diacid = O=C(O)CCCCCCCCCCCCCCCCCCC(=O)*; γGlu = O=C(O)[C@H](CCC(=O)[*:2])N[*:1]; Trx = NC[C@H]1CC[C@H](C(=O)O)CC1; AEEA = NCCOCCOCC(=O)O; Aib = CC(C)(N)C(=O)O

Legend:
human GLP-1 receptor [1] = biological target: T1, human GLP-1 receptor (Homo sapiens, UniProt P43220); test: GLP-1 receptor binding, competitive binding assay (125I-GLP-1, SPA) on isolated membranes;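 also: test compounds added at a range of concentrations to membranes from cells expressing the human GLP-1 receptor, scored by displacement of labelled ligand, read with WGA SPA beads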
T1 construct: expressed in transfected cells; host or cells: membranes prepared from BHK cells (parent line BHKTS13), clone FCW467-12A
T1 sequence (P43220 24-463): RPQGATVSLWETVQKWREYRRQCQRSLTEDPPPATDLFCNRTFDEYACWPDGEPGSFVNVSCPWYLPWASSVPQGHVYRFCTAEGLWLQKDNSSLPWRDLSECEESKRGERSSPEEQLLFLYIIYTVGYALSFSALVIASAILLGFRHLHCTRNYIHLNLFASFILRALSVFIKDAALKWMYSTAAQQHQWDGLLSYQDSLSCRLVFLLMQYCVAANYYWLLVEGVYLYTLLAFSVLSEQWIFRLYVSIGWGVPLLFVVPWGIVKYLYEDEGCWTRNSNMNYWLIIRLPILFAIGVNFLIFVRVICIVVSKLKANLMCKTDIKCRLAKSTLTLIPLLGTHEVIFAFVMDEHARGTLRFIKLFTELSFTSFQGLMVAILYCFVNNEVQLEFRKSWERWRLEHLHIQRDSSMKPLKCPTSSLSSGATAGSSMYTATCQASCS
Method: The purpose of this example is to test the receptor binding of the GLP-1 derivatives in vitro. The receptor binding is a measure of affinity of a derivative for the human GLP-1 receptor.
In this type of assay a labelled ligand (in this case ^125I-GLP-1) is bound to the receptor. Each derivative is added in a series of concentrations to isolated membranes containing the human GLP-1 receptor and displacement of the labelled ligand is monitored. The receptor binding is reported as the concentration at which half of the labelled ligand is displaced from the receptor, the IC50 value.
The following chemicals were used in the assay: Human serum albumin (HSA) (Sigma A1653), DMEM w/o phenol red (Gibco 11880-028), Pen/strep (Invitrogen 15140-122), G418 (Invitrogen 10131-027), 1 M Hepes (Gibco 15630), EDTA (Invitrogen 15575-038), PBS (Invitrogen 14190-094), fetal calf serum (Invitrogen 16140-071), EGTA, MgCl2 (Merck 1.05832.1000), Tween 20 (Amresco 0850C335), SPA particles (wheat germ agglutinin (WGA) SPA beads, Perkin Elmer RPNQ0001), [^125I]-GLP-1]-(7-36)NH2 (produced in-house), OptiPlate™-96 (Packard 6005290).
Buffer 1 consisted of 20 mM Na-HEPES plus 10 mM EDTA and pH was adjusted to 7.4. Buffer 2 consisted of 20 mM Na-HEPES plus 0.1 mM EDTA and pH was adjusted to 7.4. Assay buffer consisted of 50 mM HEPES supplemented with 5 mM EGTA, 5 mM MgCl2, 0.005% Tween 20 and pH was adjusted to 7.4. An 8% albumin stock consisted of HSA dissolved at 8% (w/v) in assay buffer. An 0.02% albumin stock consisted of HSA dissolved at 0.02% (w/v) in assay buffer.
The cells express the human GLP-1 receptor.
The cells were grown at 5% CO2 in DMEM, 10% fetal calf serum, 1% Pen/Strep (Penicillin/Streptomycin) and 1.0 mg/ml of the selection marker G418.
To make a membrane preparation the cells were grown to approximately 80% confluence. The cells were washed twice in phosphate-buffered saline and harvested. The cells were pelleted using a brief centrifugation and the cell pellet was kept on ice. The cell pellet was homogenised with ULTRA-THURRAX™ dispersing instrument for 20-30 seconds in a suitable amount of buffer 1 (e.g., 10 ml). The homogenate was centrifuged for 15 minutes. The pellet was re-suspended (homogenised) in 10 ml buffer 2 and centrifuged. This step was repeated once more. The resulting pellet was re-suspended in buffer 2 and the protein concentration was determined. The membranes were aliquoted and stored at minus 80° C.
For the receptor binding assay in the presence of low HSA (0.005%) 50 μl of the assay buffer was added to each well of an assay plate.
For the receptor binding assay in the presence of high HSA (2%) 50 μl of the 8% albumin stock was added to each well of an assay plate.
Cell membrane aliquots were thawed and diluted to their working concentration. Fifty μl were added to each well in the assay plate.
WGA SPA beads were suspended in assay buffer at 20 mg/ml. The suspension was diluted to 10 mg/ml in assay buffer just prior to addition to the assay plate. Fifty μl were added to each well in the assay plate.
The incubation was started by adding 25 μl of 480 pM solution of [^125I]-GLP-1]-(7-36)NH2 to each well of the assay plate. A 25 μl aliquot was reserved for measuring total counts/well.
The assay plate was incubated for 2 h at 30° C.
The assay plate was centrifuged for 10 min.
The assay plate was read in a Packard TopCount NXT instrument.
The data from the TopCount instrument were transferred to GraphPad Prism software. The software averaged the values for the replicates and performed a non-linear regression. IC50 values were calculated by the software and reported in nM.

human GLP-1 receptor [2] = biological target: T1, human GLP-1 receptor; test: In vitro potency, CRE luciferase reporter gene assay in BHK cells expressing the human GLP-1 receptor; type: cell-based; conditions: whole cell reporter gene assay, 3 h incubation, no HSA, averages of at least two replicates
Method: The purpose of this example is to test the activity, or potency, of the GLP-1 derivatives in vitro. The in vitro potency is the measure of human GLP-1 receptor activation in a whole cell assay.
Semaglutide was included for comparison.
In vitro potency was determined by measuring the response of the human GLP-1 receptor in a reporter gene assay. The assay was performed in a stably transfected BHK cell line that expresses the human GLP-1 receptor and contains the DNA for the cAMP response element (CRE) coupled to a promoter and the gene for firefly luciferase (CRE luciferase). When the human GLP-1 receptor is activated it results in the production of cAMP, which in turn results in the luciferase protein being expressed. When assay incubation is completed the luciferase substrate (luciferin) is added and the enzyme converts luciferin to oxyluciferin to produce bioluminescence. The luminescence is measured as the readout for the assay.
The cells used in this assay (clone FCW467-12A/KZ10-1) were BHK cells with BHKTS13 as a parent cell line. The cells were derived from a clone (FCW467-12A) that expresses the human GLP-1 receptor and were established by further transfection with CRE luciferase to obtain the current clone.
The cells were cultured at 5% CO2 in Cell Culture Medium. They were aliquoted and stored in liquid nitrogen. Before each assay an aliquot is taken up and washed twice in PBS before being suspended at the desired concentration in the assay specific buffer. For 96-well plates the suspension was made to give a final concentration of 5×10^3 cells/well.
The following chemicals were used in the assay: Pluronic F-68 (10%) (Gibco 2404), human serum albumin (HSA) (Sigma A9511), ovalbumin (Sigma A5503), DMEM w/o phenol red (Gibco 11880-028), 1 M Hepes (Gibco 15630), Glutamax 100× (Gibco 35050) and steadylite plus (PerkinElmer 6016757).
Cell Culture Medium consisted of DMEM medium with 10% FBS (Fetal Bovine Serum; Invitrogen 16140-071), 1 mg/ml G418 (Invitrogen 15140-122), 240 nM MTX (methotrexate; Sigma M9929) and 1% pen/strep (penicillin/streptomycin; Invitrogen 15140-122).
Assay Medium consisted of DMEM w/o phenol red, 10 mM Hepes and 1× Glutamax. The Assay Buffer consisted of 2% ovalbumin and 0.2% Pluronic F-68 in Assay Medium.
1) Cell stocks were thawed in a 37° C. water bath.
2) Cells were washed three times in PBS.
3) The cells were counted and adjusted to 5×10^3 cells/50 μl (1×10^5 cells/ml) in Assay Medium. A 50 μl aliquot of cells was transferred to each well in the assay plate.
4) Stocks of the test compounds and reference compounds were diluted to a concentration of 0.2 μM in Assay Buffer. Compounds were diluted 10-fold to give the following concentrations: 2×10^−7 M, […]; 2×10^−9 M, 2×10^−10 M, 2×10^−11 M, 2×10^−12 M, 2×10^−13 M, and 2×10^−14 M. 5) A 50 μl aliquot of compound or blank was transferred from the dilution plate to the assay plate. Compounds were tested at the following final concentrations: 1×10^−7 M, 1×10^−8 M; 1×10^−9 M, 1×10^−10 M, 1×10^−11 M, 1×10^−12 M, 1×10^−13 M, and 1×10^−14 M. 6) The assay plate was incubated for 3 h in a 5% CO2 incubator at 37° C. 7) The assay plate was removed from the incubator and allowed to stand at room temperature for 15 min. 8) A 100 μl aliquot of steadylite plus reagent was added to each well of the assay plate (reagent was light sensitive). 9) Each assay plate was covered with aluminum foil to protect it from light and shaken for 30 min at room temperature. 10) Each assay plate was read in a Packard TopCount NXT instrument. Calculations and Results
The data from the TopCount instrument were transferred to GraphPad Prism software. The software performs a non-linear regression (log(agonist) vs response).
A minimum of two replicates was measured for each sample. The reported values are averages of the replicates.

[3] = High HSA IC50 (nM), high serum albumin (2.0% HSA final assay concentration)
[4] = Low HSA IC50 (nM), low serum albumin (max. 0.001% final assay concentration)

IC50 (human GLP-1 receptor [1]; high serum albumin (2.0% HSA final assay concentration), read-out: High HSA IC50)	IC50 (human GLP-1 receptor [1]; low serum albumin (max. 0.001% final assay concentration), read-out: Low HSA IC50)	SMILES	IC50 (human GLP-1 receptor [1]; [3])	IC50 (human GLP-1 receptor [1]; [4])	EC50 (human GLP-1 receptor [2])
		CC[C@H](C)[C@H](NC(=O)[C@H](Cc1ccccc1)NC(=O)[C@H](CCC(=O)O)NC(=O)[C@H](CCCNC(=N)N)NC(=O)[C@H](C)NC(=O)[C@H](C)NC(=O)[C@H](CCC(N)=O)NC(=O)[C@H](CCC(=O)O)NC(=O)[C@H](CCC(=O)O)NC(=O)[C@H](CC(C)C)NC(=O)[C@H](Cc1ccc(O)cc1)NC(=O)[C@H](CO)NC(=O)[C@H](CO)NC(=O)[C@@H](NC(=O)[C@H](CC(=O)O)NC(=O)[C@H](CO)NC(=O)[C@@H](NC(=O)[C@H](Cc1ccccc1)NC(=O)[C@@H](NC(=O)CNC(=O)[C@H](CCC(=O)O)NC(=O)C(C)(C)NC(=O)[C@@H](N)Cc1c[nH]cn1)[C@@H](C)O)[C@@H](C)O)C(C)C)C(=O)N[C@@H](C)C(=O)N[C@@H](Cc1c[nH]c2ccccc12)C(=O)N[C@@H](CC(C)C)C(=O)N[C@H](C(=O)N[C@@H](CCCNC(=N)N)C(=O)NCC(=O)N[C@@H](CCCCNC(=O)COCCOCCNC(=O)COCCOCCNC(=O)CC[C@H](NC(=O)[C@H]1CC[C@H](CNC(=O)CCCCCCCCCCCCCCCCCCC(=O)O)CC1)C(=O)O)C(=O)NCC(=O)N1CCC[C@H]1C(=O)N[C@@H](C)C(=O)N[C@@H](CO)C(=O)N[C@@H](CCC(=O)O)C(=O)N[C@@H](CCCCNC(=O)COCCOCCNC(=O)COCCOCCNC(=O)CC[C@H](NC(=O)[C@H]1CC[C@H](CNC(=O)CCCCCCCCCCCCCCCCCCC(=O)O)CC1)C(=O)O)C(=O)O)C(C)C [Example 15] (H-H[Aib]EGTFTSDVSSYLEEQAAREFIAWLVRGK([AEEA-AEEA-γGlu-Trx-C20 diacid])GPASEK([AEEA-AEEA-γGlu-Trx-C20 diacid])-OH)	928 nM	1.6 nM	0.02 nM
		CC[C@H](C)[C@H](NC(=O)[C@H](Cc1ccccc1)NC(=O)[C@H](CCC(=O)O)NC(=O)[C@H](CCCNC(=N)N)NC(=O)[C@H](C)NC(=O)[C@H](C)NC(=O)[C@H](CCC(N)=O)NC(=O)[C@H](CCC(=O)O)NC(=O)[C@H](CCC(=O)O)NC(=O)[C@H](CC(C)C)NC(=O)[C@H](Cc1ccc(O)cc1)NC(=O)[C@H](CO)NC(=O)[C@H](CO)NC(=O)[C@@H](NC(=O)[C@H](CC(=O)O)NC(=O)[C@H](CO)NC(=O)[C@@H](NC(=O)[C@H](Cc1ccccc1)NC(=O)[C@@H](NC(=O)CNC(=O)[C@H](CCC(=O)O)NC(=O)C(C)(C)NC(=O)[C@@H](N)Cc1c[nH]cn1)[C@@H](C)O)[C@@H](C)O)C(C)C)C(=O)N[C@@H](C)C(=O)N[C@@H](Cc1c[nH]c2ccccc12)C(=O)N[C@@H](CC(C)C)C(=O)N[C@H](C(=O)N[C@@H](CCCNC(=N)N)C(=O)NCC(=O)N[C@@H](CCCNC(=N)N)C(=O)NCC(=O)N[C@@H](CCCCNC(=O)COCCOCCNC(=O)COCCOCCNC(=O)COCCOCCNC(=O)COCCOCCNC(=O)COCCOCCNC(=O)COCCOCCNC(=O)CC[C@H](NC(=O)[C@H]1CC[C@H](CNC(=O)CCCCCCCCCCCCCCCCCCC(=O)O)CC1)C(=O)O)C(=O)NCC(=O)NCC(=O)N[C@@H](CO)C(=O)N[C@@H](CCCCNC(=O)COCCOCCNC(=O)COCCOCCNC(=O)COCCOCCNC(=O)COCCOCCNC(=O)COCCOCCNC(=O)COCCOCCNC(=O)CC[C@H](NC(=O)[C@H]1CC[C@H](CNC(=O)CCCCCCCCCCCCCCCCCCC(=O)O)CC1)C(=O)O)C(=O)O)C(C)C [Example 24] (H-H[Aib]EGTFTSDVSSYLEEQAAREFIAWLVRGRGK([AEEA-AEEA-AEEA-AEEA-AEEA-AEEA-γGlu-Trx-C20 diacid])GGSK([AEEA-AEEA-AEEA-AEEA-AEEA-AEEA-γGlu-Trx-C20 diacid])-OH)	84 nM	0.67 nM	0.007 nM
		CC[C@H](C)[C@H](NC(=O)[C@H](Cc1ccccc1)NC(=O)[C@H](CCC(=O)O)NC(=O)[C@H](CCCNC(=N)N)NC(=O)[C@H](C)NC(=O)[C@H](C)NC(=O)[C@H](CCC(N)=O)NC(=O)[C@H](CCC(=O)O)NC(=O)[C@H](CCC(=O)O)NC(=O)[C@H](CC(C)C)NC(=O)[C@H](Cc1ccc(O)cc1)NC(=O)[C@H](CO)NC(=O)[C@H](CO)NC(=O)[C@@H](NC(=O)[C@H](CC(=O)O)NC(=O)[C@H](CO)NC(=O)[C@@H](NC(=O)[C@H](Cc1ccccc1)NC(=O)[C@@H](NC(=O)CNC(=O)[C@H](CCC(=O)O)NC(=O)C(C)(C)NC(=O)[C@@H](N)Cc1c[nH]cn1)[C@@H](C)O)[C@@H](C)O)C(C)C)C(=O)N[C@@H](C)C(=O)N[C@@H](Cc1c[nH]c2ccccc12)C(=O)N[C@@H](CC(C)C)C(=O)N[C@H](C(=O)N[C@@H](CCCNC(=N)N)C(=O)NCC(=O)N[C@@H](CCCCNC(=O)COCCOCCNC(=O)COCCOCCNC(=O)CC[C@H](NC(=O)[C@H]1CC[C@H](CNC(=O)CCCCCCCCCCCCCCCCCCC(=O)O)CC1)C(=O)O)C(=O)NCC(=O)N[C@@H](CCC(=O)O)C(=O)NCC(=O)N1CCC[C@H]1C(=O)N[C@@H](C)C(=O)N[C@@H](CCCCNC(=O)COCCOCCNC(=O)COCCOCCNC(=O)CC[C@H](NC(=O)[C@H]1CC[C@H](CNC(=O)CCCCCCCCCCCCCCCCCCC(=O)O)CC1)C(=O)O)C(=O)O)C(C)C [Example 16] (H-H[Aib]EGTFTSDVSSYLEEQAAREFIAWLVRGK([AEEA-AEEA-γGlu-Trx-C20 diacid])GEGPAK([AEEA-AEEA-γGlu-Trx-C20 diacid])-OH)	602 nM	1.4 nM	0.025 nM
142 nM	2.4 nM	CC[C@H](C)[C@H](NC(=O)[C@H](Cc1ccccc1)NC(=O)[C@H](CCC(=O)O)NC(=O)[C@H](CCCNC(=N)N)NC(=O)[C@H](C)NC(=O)[C@H](C)NC(=O)[C@H](CCC(N)=O)NC(=O)[C@H](CCC(=O)O)NC(=O)[C@H](CCC(=O)O)NC(=O)[C@H](CC(C)C)NC(=O)[C@H](Cc1ccc(O)cc1)NC(=O)[C@H](CO)NC(=O)[C@H](CO)NC(=O)[C@@H](NC(=O)[C@H](CC(=O)O)NC(=O)[C@H](CO)NC(=O)[C@@H](NC(=O)[C@H](Cc1ccccc1)NC(=O)[C@@H](NC(=O)CNC(=O)[C@H](CCC(=O)O)NC(=O)C(C)(C)NC(=O)[C@@H](N)Cc1c[nH]cn1)[C@@H](C)O)[C@@H](C)O)C(C)C)C(=O)N[C@@H](C)C(=O)N[C@@H](Cc1c[nH]c2ccccc12)C(=O)N[C@@H](CC(C)C)C(=O)N[C@H](C(=O)N[C@@H](CCCNC(=N)N)C(=O)NCC(=O)N[C@@H](CCCNC(=N)N)C(=O)NCC(=O)N[C@@H](CCCCNC(=O)COCCOCCNC(=O)COCCOCCNC(=O)COCCOCCNC(=O)COCCOCCNC(=O)CC[C@H](NC(=O)CCCCCCCCCCCCCCCCCCC(=O)O)C(=O)O)C(=O)NCC(=O)NCC(=O)N[C@@H](CO)C(=O)N[C@@H](CCCCNC(=O)COCCOCCNC(=O)COCCOCCNC(=O)COCCOCCNC(=O)COCCOCCNC(=O)CC[C@H](NC(=O)CCCCCCCCCCCCCCCCCCC(=O)O)C(=O)O)C(=O)O)C(C)C [Example 19] (H-H[Aib]EGTFTSDVSSYLEEQAAREFIAWLVRGRGK([AEEA-AEEA-AEEA-AEEA-γGlu-C20 diacid])GGSK([AEEA-AEEA-AEEA-AEEA-γGlu-C20 diacid])-OH; N-terminus and C-terminus assumed)			0.0062 nM
